From patent US6919354B2, “1-aryl-or 1-alkylsulfonylbenzazole derivatives as 5-hydroxytryptamine-6 ligands” (Wyeth, priority 2001, dated 2005) come the findings set out here.

Structures can show the parent of a compound that is named as a salt.

System in the first data set: not given
Assay: not given
Settings: not given
As to `O=S(=O)(c1ccc(F)cc1)n1ncc2c(OCCN3CCCCC3)cccc21` (as salt: hydrochloride) [Example 16, 1-[(4-fluorophenyl)sulfonyl]-4-[2-(1-piperidinyl)ethoxy]-1H-indazole], the melting point was 122 °C (dec.).
Compound `O=[N+]([O-])c1ccc(S(=O)(=O)n2ncc3c(OCCN4CCCCC4)cccc32)cc1` (as salt: hydrochloride) [Example 15, 1-[(4-nitrophenyl)sulfonyl]-4-[2-(1-piperidinyl)ethoxy]-1H-indazole] registered a melting point of 117 to 119 °C.

A further data set deals with T1, human cloned 5-HT6 receptors (Homo sapiens, UniProt P50406).
T1 construct: expressed in transfected cells; host or cells: HeLa cells
T1 sequence (P50406 whole entry): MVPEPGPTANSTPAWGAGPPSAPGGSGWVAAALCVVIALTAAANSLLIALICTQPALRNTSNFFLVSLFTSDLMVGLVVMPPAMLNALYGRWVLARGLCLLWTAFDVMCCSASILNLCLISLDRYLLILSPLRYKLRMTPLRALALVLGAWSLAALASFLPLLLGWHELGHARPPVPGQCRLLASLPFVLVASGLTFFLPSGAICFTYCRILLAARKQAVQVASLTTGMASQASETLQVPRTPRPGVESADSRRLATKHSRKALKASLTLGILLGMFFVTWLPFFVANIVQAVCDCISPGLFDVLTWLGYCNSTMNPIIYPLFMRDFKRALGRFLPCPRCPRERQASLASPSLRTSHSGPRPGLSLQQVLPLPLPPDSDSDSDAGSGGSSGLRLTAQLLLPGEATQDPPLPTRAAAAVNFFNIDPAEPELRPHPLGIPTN
The experiment in a line: 5-HT6 binding affinity, [3H]-LSD displacement from membranes of Hela cells expressing human cloned 5-HT6 receptors. Conditions: 1 μM test compound; [3H]-LSD 3.0 nM. As to the method: The affinity of test compounds for the serotonin 5-HT6 receptor is evaluated in the following manner. Cultured Hela cells expressing human cloned 5-HT6 receptors are harvested and centrifuged at low speed (1,000×g) for 10.0 min to remove the culture media. The harvested cells are suspended in half volume of fresh physiological phosphate buffered saline solution and recentrifuged at the same speed. This operation is repeated. The collected cells are then homogenized in ten volumes of 50 mM Tris.HCl (pH 7.4) and 0.5 mM EDTA. The homogenate is centrifuged at 40,000×g for 30.0 min and the precipitate is collected. The obtained pellet is resuspended in 10 volumes of Tris.HCl buffer and recentrifuged at the same speed. The final pellet is suspended in a small volume of Tris.HCl buffer and the tissue protein content is determined in aliquots of 10-25 μl volumes. Bovine Serum Albumin is used as the standard in the protein determination according to the method described in Lowry et al., J. Biol. Chem., 193:265 (1951). The volume of the suspended cell membranes is adjusted to give a tissue protein concentration of 1.0 mg/ml of suspension. The prepared membrane suspension (10 times concentrated) is aliquoted in 1.0 ml volumes and stored at −70° C. until used in subsequent binding experiments.
Binding experiments are performed in a 96 well microtiter plate format, in a total volume of 200 μl. […] The test compounds are added in 20.0 μl volume.
The reaction is allowed to proceed in the dark for 120 min at room temperature, at which time, the bound ligand-receptor complex is filtered off on a 96 well unifilter with a Packard Filtermate® 196 Harvester. The bound complex caught on the filter disk is allowed to air dry and the radioactivity is measured in a Packard TopCount® equipped with six photomultiplier detectors, after the addition of 40.0 μl Microscint®-20 scintillant to each shallow well. The unifilter plate is heat-sealed and counted in a PackardTopCount® with a tritium efficiency of 31.0%.
Binding in the presence of varying concentrations of test compound is expressed as a percentage of specific binding in the absence of test compound. The results are plotted as log % bound versus log concentration of test compound. […] A linear regression line of data points is plotted, from which the IC50 value is determined and the Ki value is determined based upon the following equation: Ki=IC50/(1+L/KD) where L is the concentration of the radioactive ligand used and KD is the dissociation constant of the ligand for the receptor, both expressed in nM.
Consider “N-(3-methoxybenzyl)-N-(2-{[1-(phenylsulfonyl)-1H-indol-4-yl]oxy}ethylamineH hydrochloride [Example 7b]”, for which the “% inhibition at 1 μM concentration (5-HT6 binding)” value came to 95% @ 1 μM*.
As to “N,N-Bis(3-methoxybenzyl)-N-(2-{[1-(phenylsulfonyl)-1H-indol-4-yl]oxy}ethylamine [Example 7a]”, the “% inhibition at 1 μM concentration (5-HT6 binding)” value is recorded as 94% @ 1 μM*.

The data set is the same for the next values; noted with them: 1 μM test compound; [3H]-LSD 3.0 nM; read-out: % inhibition at 1 μM concentration (5-HT6 binding).
For `O=S(=O)(c1ccccc1)n1ccc2c(OCCN3CCOCC3)cccc21` [Example 9, 4-(2-Morpholin-4-ylethoxy)-1-(phenylsulfonyl)-1H-indole Hydrochloride], the inhibition at 1 µM was 92%.
Take `O=[N+]([O-])c1ccc(S(=O)(=O)n2ncc3c(OCCN4CCCCC4)cccc32)cc1` [Example 15, 1-[(4-nitrophenyl)sulfonyl]-4-[2-(1-piperidinyl)ethoxy]-1H-indazole]: the inhibition at 1 µM was 76%.

Still in this data set, the particulars now being: [3H]-LSD 3.0 nM, Hela cell membranes, 120 min at room temperature.
Turning to `O=S(=O)(c1ccccc1)n1ncc2c(OCCNC3CCOCC3)cccc21` [Example 17], affinity was put at a Ki of 6 nM.
Regarding `NCCOc1cccc2c1ccn2S(=O)(=O)c1ccccc1` [Example 5, 2-{[1-(Phenylsulfonyl)-1H-indole-4-yl]oxy}ethylamine Hydrochloride], the affinity corresponds to a Ki of 2 nM.
The same measure, in the same setting: then `O=S(=O)(c1ccccc1)n1ccc2c(OCCN3CCCCC3)cccc21` [Example 10, 1-(Phenylsulfonyl)-4-(2-piperidin-1-ylethoxy)-1H-indole Hydrochloride], with 7 nM; and `O=S(=O)(c1ccccc1)n1ccc2c(OCCNC3CCOCC3)cccc21` [Example 6, N-(2-{[1-(Phenylsulfonyl)-1H-indol-4-yl]oxy}ethyl)tetrahydro-2H-pyran-4-amine Hydrochloride], with 6 nM.
Compound `CN(C)CCOc1cccc2c1ccn2S(=O)(=O)c1ccccc1` [Example 8, N,N-Dimethyl-N-(2-{[1-phenylsulfonyl)-1H-indol-4-yl]oxy}ethylamine Hydrochloride] showed a Ki of 4 nM.
Same read-out and setting: the same measure for `NCCOc1cccc2c1cnn2S(=O)(=O)c1ccccc1` [Example 14, 2-{[1-Phenylsulfonyl)-1H-indazol-4-yl]oxy}ethylamine Hydrochloride]: 1 nM; for `Nc1ccc(S(=O)(=O)n2ncc3c(OCCN4CCCCC4)cccc32)cc1` [Example 19, 4-({4-[2-(1-Piperidinyl)ethoxy]-1H-indazol-1-yl}sulfonyl)aniline]: 1 nM.
In the case of `O=S(=O)(c1ccccc1)n1ncc2c(OCCN3CCCCC3)cccc21` [Example 13, 1-Phenylsulfonyl)-4-[1-piperidinyl)ethoxy]-1H-indazole Hydrochloride], the affinity corresponds to a Ki of 2 nM.
As for `O=S(=O)(c1ccccc1)n1ncc2c(OCCNC3CCSCC3)cccc21` [Example 18, N-(2-{[1-Phenylsulfonyl)-1H-indazol-4-yl]oxy}ethyl)tetrahydro-2H-thiopyran-4-amine Hydrochloride], the Ki is 11 nM.
Regarding `O=S(=O)(c1ccc(F)cc1)n1ncc2c(OCCN3CCCCC3)cccc21` [Example 16, 1-[(4-fluorophenyl)sulfonyl]-4-[2-(1-piperidinyl)ethoxy]-1H-indazole], the affinity, expressed as Ki, was 19 nM.
